From patent publication US9850283B2, “Macrocyclic inhibitors of the PD-1/PD-L1 and CD80(B7-1)/PD-L1 protein/protein interactions” (BRISTOL-MYERS SQUIBB COMPANY, priority 2013, dated 2017)
Positions of bridges follow the written chain, without caps; N, C: chain ends. Non-standard residues stand in square brackets, D forms with d. Residues, ends and D or L forms follow the SMILES beside them. Phe(3-Cl) = N[C@@H](Cc1cccc(Cl)c1)C(=O)O; Pro(4R-NH2) = N[C@H]1CN[C@H](C(=O)O)C1; NMeF = CN[C@@H](Cc1ccccc1)C(=O)O; NMeNle = CCCC[C@H](NC)C(=O)O; Dap = NC[C@H](N)C(=O)O; Sar = CNCC(=O)O

What was measured:
Human PD-L1/PD-1 = target: T1, Human PD-L1/PD-1 (Homo sapiens, UniProt Q9NZQ7); experiment: HTRF PD-1-Ig/PD-L1-His binding assay (human PD-L1); settings: cluster symbol; read-out: HTRF IC50 cluster
T1 construct: made in house; host or cells: HEK293T
T1 sequence (Q9NZQ7 with tags, fused parts or gaps): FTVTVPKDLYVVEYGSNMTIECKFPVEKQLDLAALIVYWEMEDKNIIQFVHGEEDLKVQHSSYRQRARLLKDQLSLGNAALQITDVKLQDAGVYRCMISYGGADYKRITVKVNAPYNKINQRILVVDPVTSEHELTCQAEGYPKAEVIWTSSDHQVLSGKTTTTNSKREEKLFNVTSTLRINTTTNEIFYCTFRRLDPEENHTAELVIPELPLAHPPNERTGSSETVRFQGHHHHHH
How it was run: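 Soluble Fc-fused PD-1 and His-tagged PD-L1 (truncated before the transmembrane region) were combined in dPBS with 0.1% (w/v) BSA and 0.05% (v/v) Tween-20. Binding was read by HTRF using europium cryptate anti-Ig antibody (1 nM final) and APC anti-His antibody (20 nM final).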

[1] = target: T2, LK35.2-hPD-L1 cells / PE-labeled PD-1-Ig (Homo sapiens, UniProt Q9NZQ7); experiment: LK35.2-hPD-L1 cell binding high-content screening assay; format: cell-based; settings: cluster symbol; cell line of CBA not given (LK35.2-hPD-L1 or 293T-hPD-L1); read-out: CBA IC50 cluster
T2 construct: expressed in transfected cells; host or cells: LK35.2 mouse B cell line
T2 sequence (Q9NZQ7 19-290): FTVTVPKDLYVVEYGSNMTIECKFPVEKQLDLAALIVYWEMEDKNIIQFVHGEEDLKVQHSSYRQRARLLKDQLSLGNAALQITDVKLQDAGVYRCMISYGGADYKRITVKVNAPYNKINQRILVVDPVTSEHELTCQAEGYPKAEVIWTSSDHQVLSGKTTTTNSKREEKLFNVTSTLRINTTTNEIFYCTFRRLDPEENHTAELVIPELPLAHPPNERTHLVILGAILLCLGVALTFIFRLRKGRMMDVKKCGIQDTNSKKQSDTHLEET
How it was run: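 Readout: high-content imaging of PE-PD-1-Ig bound to LK35.2-hPD-L1 cells. Cells plated overnight (RPMI/10% FCS); compound + 1 nM PE-PD-1-Ig, 1 h, 37 °C; 3× dPBS wash before imaging.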

Row | IC50 (Human PD-L1/PD-1) | IC50 [1] | SMILES
1 | 6.76 to 30.3 nM | 4.78 to 72.9 nM | CCCC[C@H]1C(=O)N(C)CC(=O)N[C@@H](CC(=O)O)C(=O)N[C@@H](C(C)C)C(=O)N(C)[C@@H](Cc2ccccc2)C(=O)N[C@@H](Cc2ccc(O)cc2)C(=O)N(C)CC(=O)N[C@@H](Cc2c[nH]c3ccccc23)C(=O)N[C@@H](Cc2ccc(O)cc2)C(=O)N[C@@H](CN)C(=O)N[C@H](C(=O)NCC(N)=O)CSCC(=O)N[C@@H](Cc2ccccc2)C(=O)N(C)[C@@H](Cc2ccccc2)C(=O)N1C [Example 3161] ({CH2CO}-F[NMeF][NMeNle][Sar]DV[NMeF]Y[Sar]WY[Dap]CG-NH2; thioether N-13)
2 | 6.76 to 30.3 nM | 4.78 to 72.9 nM | CCCC[C@H]1C(=O)N(C)CC(=O)N[C@@H](CC(=O)O)C(=O)N[C@@H](C(C)C)C(=O)N(C)[C@@H](Cc2ccccc2)C(=O)N[C@@H](Cc2ccc(O)cc2)C(=O)N(C)CC(=O)N[C@@H](Cc2c[nH]c3ccccc23)C(=O)N[C@@H](Cc2ccc(O)cc2)C(=O)N[C@@H](CCN)C(=O)N[C@H](C(=O)NCC(N)=O)CSCC(=O)N[C@@H](Cc2ccccc2)C(=O)N(C)[C@@H](Cc2ccccc2)C(=O)N1C [Example 3162] (HELM PEPTIDE1{[O=C(C[*:3])[*:2]].F.[meF].[CCCC[C@@H](C(=O)[*:2])N(C)[*:1]].[Sar].D.V.[meF].Y.[Sar].W.Y.[Dab].C.G.[am]}$PEPTIDE1,PEPTIDE1,1:R3-14:R3$$$V2.0)
3 | 6.76 to 30.3 nM | 4.78 to 72.9 nM | CCCC[C@H]1C(=O)N(C)CC(=O)N[C@@H](CC(=O)O)C(=O)N[C@@H](C(C)C)C(=O)N(C)[C@@H](Cc2ccccc2)C(=O)N[C@@H](Cc2ccc(O)cc2)C(=O)N(C)CC(=O)N[C@@H](Cc2c[nH]c3ccccc23)C(=O)N[C@@H](Cc2ccc(O)cc2)C(=O)N[C@@H](CCCN)C(=O)N[C@H](C(=O)NCC(N)=O)CSCC(=O)N[C@@H](Cc2ccccc2)C(=O)N(C)[C@@H](Cc2ccccc2)C(=O)N1C [Example 3163] (HELM PEPTIDE1{[O=C(C[*:3])[*:2]].F.[meF].[CCCC[C@@H](C(=O)[*:2])N(C)[*:1]].[Sar].D.V.[meF].Y.[Sar].W.Y.[Orn].C.G.[am]}$PEPTIDE1,PEPTIDE1,1:R3-14:R3$$$V2.0)
4 | 6.76 to 30.3 nM | 4.78 to 72.9 nM | CCCC[C@H]1C(=O)N(C)CC(=O)N[C@@H](CC(=O)O)C(=O)N[C@@H](C(C)C)C(=O)N(C)[C@@H](Cc2ccccc2)C(=O)N[C@@H](Cc2ccc(O)cc2)C(=O)N(C)CC(=O)N[C@@H](Cc2c[nH]c3ccccc23)C(=O)N[C@@H](Cc2ccc(O)cc2)C(=O)N[C@@H](CCCCN)C(=O)N[C@H](C(=O)NCC(N)=O)CSCC(=O)N[C@@H](Cc2ccccc2)C(=O)N(C)[C@@H](Cc2ccccc2)C(=O)N1C [Example 3164] (HELM PEPTIDE1{[O=C(C[*:3])[*:2]].F.[meF].[CCCC[C@@H](C(=O)[*:2])N(C)[*:1]].[Sar].D.V.[meF].Y.[Sar].W.Y.K.C.G.[am]}$PEPTIDE1,PEPTIDE1,1:R3-14:R3$$$V2.0)
5 | 6.76 to 30.3 nM | 4.78 to 72.9 nM | CCCC[C@H]1C(=O)N(C)CC(=O)N[C@@H](CC(=O)O)C(=O)N[C@@H](C(C)C)C(=O)N(C)[C@@H](Cc2ccccc2)C(=O)N[C@@H](Cc2ccc(O)cc2)C(=O)N(C)CC(=O)N[C@@H](Cc2c[nH]c3ccccc23)C(=O)N[C@@H](Cc2ccc(O)cc2)C(=O)N[C@@H](Cc2c[nH]cn2)C(=O)N[C@H](C(=O)NCC(N)=O)CSCC(=O)N[C@@H](Cc2ccccc2)C(=O)N(C)[C@@H](Cc2ccccc2)C(=O)N1C [Example 3165] (HELM PEPTIDE1{[O=C(C[*:3])[*:2]].F.[meF].[CCCC[C@@H](C(=O)[*:2])N(C)[*:1]].[Sar].D.V.[meF].Y.[Sar].W.Y.H.C.G.[am]}$PEPTIDE1,PEPTIDE1,1:R3-14:R3$$$V2.0)
6 | 6.76 to 30.3 nM | 0.158 to 4.71 nM | CCCC[C@H]1C(=O)N(C)CC(=O)N[C@@H](CC(=O)O)C(=O)N[C@@H](C(C)C)C(=O)N(C)[C@@H](Cc2ccccc2)C(=O)N[C@@H](Cc2ccc(O)cc2)C(=O)N2CCC[C@@H]2C(=O)N[C@@H](Cc2c[nH]c3ccccc23)C(=O)N[C@@H](Cc2ccc(O)cc2)C(=O)N[C@@H](CC(C)C)C(=O)N[C@H](C(N)=O)CSCC(=O)N[C@@H](Cc2cccc(Cl)c2)C(=O)N(C)[C@@H](Cc2ccccc2)C(=O)N1C [Example 3166] ({CH2CO}-[Phe(3-Cl)][NMeF][NMeNle][Sar]DV[NMeF]Y[dP]WYLC-NH2; thioether N-13)
7 | > 30.5 nM | > 74.3 nM | CCCC[C@H]1C(=O)N(C)CC(=O)N[C@@H](CC(=O)O)C(=O)N[C@@H](C(C)C)C(=O)N(C)[C@@H](Cc2ccc(O)cc2)C(=O)N[C@@H](Cc2ccc(O)cc2)C(=O)N(C)CC(=O)N[C@@H](Cc2c[nH]c3ccccc23)C(=O)N[C@@H](Cc2ccc(O)cc2)C(=O)N[C@@H](CC(C)C)C(=O)N[C@H](C(=O)NCC(N)=O)CSCC(=O)N[C@@H](Cc2ccccc2)C(=O)N(C)[C@@H](Cc2ccccc2)C(=O)N1C [Example 3168] (HELM PEPTIDE1{[O=C(C[*:3])[*:2]].F.[meF].[CCCC[C@@H](C(=O)[*:2])N(C)[*:1]].[Sar].D.V.[meY].Y.[Sar].W.Y.L.C.G.[am]}$PEPTIDE1,PEPTIDE1,1:R3-14:R3$$$V2.0)
8 | > 30.5 nM | > 74.3 nM | CCCC[C@@H]1NC(=O)CSC[C@@H](C(=O)NCC(N)=O)NC(=O)[C@H](CC(C)C)NC(=O)[C@H](Cc2ccc(O)cc2)NC(=O)[C@H](Cc2c[nH]c3ccccc23)NC(=O)CN(C)C(=O)[C@H](Cc2ccc(O)cc2)NC(=O)[C@H](Cc2ccccc2)N(C)C(=O)[C@H](C(C)C)NC(=O)[C@H](CC(=O)O)NC(=O)CN(C)C(=O)[C@H](CCCC)N(C)C(=O)[C@H](Cc2ccccc2)N(C)C1=O [Example 3171] (HELM PEPTIDE1{[O=C(C[*:3])[*:2]].[Nle].[meF].[CCCC[C@@H](C(=O)[*:2])N(C)[*:1]].[Sar].D.V.[meF].Y.[Sar].W.Y.L.C.G.[am]}$PEPTIDE1,PEPTIDE1,1:R3-14:R3$$$V2.0)
9 | > 30.5 nM | > 74.3 nM | CCCC[C@H]1C(=O)N(C)CC(=O)N[C@@H](CC(=O)O)C(=O)N[C@@H](C(C)C)C(=O)N(C)[C@@H](Cc2ccccc2)C(=O)N[C@@H](Cc2ccc(O)cc2)C(=O)N(C)CC(=O)N[C@@H](Cc2c[nH]c3ccccc23)C(=O)N[C@@H](Cc2ccc(O)cc2)C(=O)N[C@@H](CC(C)C)C(=O)N[C@H](C(=O)NCC(N)=O)CSCC(=O)N[C@@H](CCSC)C(=O)N(C)[C@@H](Cc2ccccc2)C(=O)N1C [Example 3172] (HELM PEPTIDE1{[O=C(C[*:3])[*:2]].M.[meF].[CCCC[C@@H](C(=O)[*:2])N(C)[*:1]].[Sar].D.V.[meF].Y.[Sar].W.Y.L.C.G.[am]}$PEPTIDE1,PEPTIDE1,1:R3-14:R3$$$V2.0)
10 | > 30.5 nM | 4.78 to 72.9 nM | CCCC[C@H]1C(=O)N2CCC[C@@H]2C(=O)N2CCC[C@H]2C(=O)N[C@@H](C(C)C)C(=O)N(C)[C@@H](Cc2ccccc2)C(=O)N[C@@H](Cc2ccc(O)cc2)C(=O)N(C)CC(=O)N[C@@H](Cc2c[nH]c3ccccc23)C(=O)N[C@@H](Cc2ccc(O)cc2)C(=O)N[C@@H](CC(C)C)C(=O)N[C@H](C(=O)NCC(N)=O)CSCC(=O)N[C@@H](Cc2ccccc2)C(=O)N(C)[C@@H](Cc2ccccc2)C(=O)N1C [Example 3173] (HELM PEPTIDE1{[O=C(C[*:3])[*:2]].F.[meF].[CCCC[C@@H](C(=O)[*:2])N(C)[*:1]].[dP].P.V.[meF].Y.[Sar].W.Y.L.C.G.[am]}$PEPTIDE1,PEPTIDE1,1:R3-14:R3$$$V2.0)
11 | > 30.5 nM | 4.78 to 72.9 nM | CCCC[C@H]1C(=O)N2CCC[C@@H]2C(=O)N2C[C@H](O)C[C@H]2C(=O)N[C@@H](C(C)C)C(=O)N(C)[C@@H](Cc2ccccc2)C(=O)N[C@@H](Cc2ccc(O)cc2)C(=O)N(C)CC(=O)N[C@@H](Cc2c[nH]c3ccccc23)C(=O)N[C@@H](Cc2ccc(O)cc2)C(=O)N[C@@H](CC(C)C)C(=O)N[C@H](C(=O)NCC(N)=O)CSCC(=O)N[C@@H](Cc2ccccc2)C(=O)N(C)[C@@H](Cc2ccccc2)C(=O)N1C [Example 3174] (HELM PEPTIDE1{[O=C(C[*:3])[*:2]].F.[meF].[CCCC[C@@H](C(=O)[*:2])N(C)[*:1]].[dP].[Hyp].V.[meF].Y.[Sar].W.Y.L.C.G.[am]}$PEPTIDE1,PEPTIDE1,1:R3-14:R3$$$V2.0)
12 | 6.76 to 30.3 nM | 4.78 to 72.9 nM | CCCC[C@H]1C(=O)N2CCC[C@@H]2C(=O)N2C[C@H](N)C[C@H]2C(=O)N[C@@H](C(C)C)C(=O)N(C)[C@@H](Cc2ccccc2)C(=O)N[C@@H](Cc2ccc(O)cc2)C(=O)N(C)CC(=O)N[C@@H](Cc2c[nH]c3ccccc23)C(=O)N[C@@H](Cc2ccc(O)cc2)C(=O)N[C@@H](CC(C)C)C(=O)N[C@H](C(=O)NCC(N)=O)CSCC(=O)N[C@@H](Cc2ccccc2)C(=O)N(C)[C@@H](Cc2ccccc2)C(=O)N1C [Example 3175] ({CH2CO}-F[NMeF][NMeNle][dP][Pro(4R-NH2)]V[NMeF]Y[Sar]WYLCG-NH2; thioether N-13)
13 | > 30.5 nM | > 74.3 nM | CCCC[C@H]1C(=O)N(C)CC(=O)N[C@@H](CC(=O)O)C(=O)N[C@@H](C(C)C)C(=O)N(C)[C@@H](Cc2ccccc2)C(=O)N2CCC[C@H]2C(=O)N2CCC[C@@H]2C(=O)N[C@@H](Cc2c[nH]c3ccccc23)C(=O)N[C@@H](Cc2ccc(O)cc2)C(=O)N[C@@H](CC(C)C)C(=O)N[C@H](C(=O)NCC(N)=O)CSCC(=O)N[C@@H](Cc2ccccc2)C(=O)N(C)[C@@H](Cc2ccccc2)C(=O)N1C [Example 3176] (HELM PEPTIDE1{[O=C(C[*:3])[*:2]].F.[meF].[CCCC[C@@H](C(=O)[*:2])N(C)[*:1]].[Sar].D.V.[meF].P.[dP].W.Y.L.C.G.[am]}$PEPTIDE1,PEPTIDE1,1:R3-14:R3$$$V2.0)
